From patent publication US20120302569A1, “PHENYL-THIAZOLYL INHIBITORS OF PRO-MATRIX METALLOPROTEINASE ACTIVATION” (priority 2011, published 2012) come the findings set out here.

The structures appear in SMILES notation. Where a name gives a salt, the structure may show the parent alone.

The target in test [1] is T1, proMMP13(1-268) (SEQ ID NO:7) (Homo sapiens, UniProt P45452).
T1 construct: 6×-histidine tag (C); made in house; host or cells: HEK293 (transient transfection, secreted)
Nature of the test: ProMMP13/Plasmin P126 Activation Assay. The format is biochemical. Particulars: proMMP13(1-268) activated by plasmin. As for the experimental part: ProMMP13/Plasmin P126 Activation Assay
On the day of assay, proMMP13(1-268) (SEQ ID NO:7) purified from HEK293 cells and plasmin were diluted to 160 nM and 320 nM, respectively, in assay buffer. The reaction volume was 50 μL. […] The plate was sealed and incubated for 40 min at 37° C. […] Plasmin was not reactive towards P-126 substrate under these conditions.

Test [2] concerns the target T2, proMMP9(67-444;ΔFnII) (SEQ ID NO:5) (Homo sapiens, UniProt P14780, DEL216-390).
T2 construct: start methionine (N); made in house; host or cells: E. coli BL21(DE3) RIL
T2 sequence (P14780 with tags, fused parts or gaps DEL216-390): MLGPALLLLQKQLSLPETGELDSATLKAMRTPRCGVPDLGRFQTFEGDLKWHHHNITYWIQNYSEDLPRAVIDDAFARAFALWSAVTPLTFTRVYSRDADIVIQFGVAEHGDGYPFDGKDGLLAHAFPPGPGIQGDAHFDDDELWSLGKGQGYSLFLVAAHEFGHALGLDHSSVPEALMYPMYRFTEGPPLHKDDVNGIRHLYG
Nature of the test: ThermoFluor with proMMP9(67-444;ΔFnII). Particulars: read-out: proMMP9(67-444; ΔFnII) (SEQ ID NO: 5) binding. Put shortly: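 Thermal shift with 3.5 μM protein and 50 μM 1,8-ANS in 50 mM HEPES pH 7.0, 100 mM NaCl, 0.001% Tween-20, 2.5 mM MgCl2, 300 μM CaCl2, heated 40–90 °C at 1 °C/min. Fluorescence (500±25 nm) fit to yield Tm; binding fitted using DSC/ThermoFluor-derived thermodynamic parameters, compounds dosed as serial dilutions.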
(DSF heats the sample and reads unfolding from a dye or from intrinsic fluorescence.)

The target of test [3] is T3, full-length proMMP9(1-707) (SEQ ID NO:1) (Homo sapiens, UniProt P14780, R574P).
T3 construct: made in house; host or cells: HEK293 (proMMP9, secreted); E. coli (MMP3)
Nature of the test: proMMP9/MMP3 P126 Activation Assay. The format is biochemical. Particulars: proMMP9(1-707) from HEK293 cells activated by catalytic MMP3. As for the experimental part:
proMMP9/MMP3 P126 Activation Assay
The reaction volume was 50 μL. […] Reactivity of residual MMP3 towards P-126 substrate was minimal under these conditions.

Test [4] deals with T4, proMMP9(20-445;ΔFnII) (SEQ ID NO:6) (Homo sapiens, UniProt P14780, DEL216-390).
T4 construct: start methionine (N); made in house; host or cells: E. coli BL21(DE3) RIL
T4 sequence (P14780 with tags, fused parts or gaps DEL216-390): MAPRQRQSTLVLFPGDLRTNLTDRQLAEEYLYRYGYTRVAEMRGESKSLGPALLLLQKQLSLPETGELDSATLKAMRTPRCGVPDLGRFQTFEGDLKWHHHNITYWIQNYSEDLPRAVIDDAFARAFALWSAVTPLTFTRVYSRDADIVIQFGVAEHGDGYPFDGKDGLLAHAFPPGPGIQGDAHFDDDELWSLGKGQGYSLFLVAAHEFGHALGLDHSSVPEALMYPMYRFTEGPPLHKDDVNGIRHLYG
Nature of the test: ThermoFluor with proMMP9(20-445;ΔFnII). The conditions noted are these: read-out: proMMP9(20-445; ΔFnII) (SEQ ID NO: 6) binding. Put shortly: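 Thermal shift of 2.8 μM desalted proMMP9(20-445;ΔFnII) with 50 μM 1,8-ANS in 50 mM HEPES pH 7.0, NaCl, Tween-20, MgCl2, CaCl2; heated 40-90 °C at 1 °C/min, emission 500 nm. Tm from fitted curves; binding fit using DSC/ThermoFluor-derived unfolding parameters for 11-point compound dilutions.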

T3 sequence (P14780 20-707 R574P): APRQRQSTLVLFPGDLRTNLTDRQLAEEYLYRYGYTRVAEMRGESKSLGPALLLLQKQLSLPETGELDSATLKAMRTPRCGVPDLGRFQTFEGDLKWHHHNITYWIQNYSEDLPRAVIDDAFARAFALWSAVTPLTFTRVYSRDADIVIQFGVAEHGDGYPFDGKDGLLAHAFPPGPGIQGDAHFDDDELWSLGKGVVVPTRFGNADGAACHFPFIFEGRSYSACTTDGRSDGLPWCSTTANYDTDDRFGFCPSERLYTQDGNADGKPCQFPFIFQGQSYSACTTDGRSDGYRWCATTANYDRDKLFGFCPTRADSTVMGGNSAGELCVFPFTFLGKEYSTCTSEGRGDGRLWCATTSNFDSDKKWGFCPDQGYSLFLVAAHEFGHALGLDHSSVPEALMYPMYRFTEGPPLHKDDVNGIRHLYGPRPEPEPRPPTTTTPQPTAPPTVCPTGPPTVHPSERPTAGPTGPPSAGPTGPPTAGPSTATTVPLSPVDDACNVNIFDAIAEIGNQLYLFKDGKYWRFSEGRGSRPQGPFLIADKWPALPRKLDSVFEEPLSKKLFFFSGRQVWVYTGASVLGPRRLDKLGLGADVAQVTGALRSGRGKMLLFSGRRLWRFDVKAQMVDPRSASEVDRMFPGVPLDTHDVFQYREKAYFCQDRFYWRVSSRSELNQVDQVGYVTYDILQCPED

One may read the IC50 as the point on the concentration scale where inhibition reaches its midpoint. A lower IC50 goes with inhibition by little substance. Consider `CCOc1ccncc1Nc1nc(-c2ccc(C3=CCN(CC)CC3)cc2)cs1` [Example 22, N-(4-Ethoxypyridin-3-yl)-4-(4-(1-ethyl-1,2,3,6-tetrahydropyridin-4-yl)phenyl)thiazol-2-amine.TFA], for which the IC50 came to 1200 nM in test [1] and 69 nM in test [3]. For the same compound, the Kd in test [2] was 36 nM; in test [4], 340 nM.

For `CC(C)Oc1ccc(C(N)=O)cc1Nc1nc(-c2ccc(OCCN3CCN(C)CC3)cc2)cs1` [Example 42, 4-isopropoxy-3-((4-(4-(2-(4-methylpiperazin-1-yl)ethoxy)phenyl)thiazol-2-yl)amino)benzamide.TFA], the IC50 in test [1] stood at 270 nM; in test [3] it was 27 nM. The Kd in test [2] was found to be 78 nM; in test [4], 16 nM.

Regarding `CC(C)Oc1ccc(C(N)=O)cc1Nc1nc(-c2ccc(N3CCN(C(C)C)CC3)cc2)cs1` [Example 10, 4-Isopropoxy-3-((4-(4-(4-isopropylpiperazin-1-yl)phenyl)thiazol-2-yl)amino)benzamide.HCl], the results for the IC50 in test [1] and in test [3] were 120 nM and 50 nM, respectively. Further, the Kd was 33 nM in test [2] and 17 nM in test [4].

With `CC(C)Oc1ccc(S(N)(=O)=O)cc1Nc1nc(-c2ccc(CN3CCN(C(C)C)CC3)cc2)cs1` [Example 57, 4-isopropoxy-3-((4-(4-((4-isopropylpiperazin-1-yl)methyl)phenyl)thiazol-2-yl)amino)benzenesulfonamide.TFA], the IC50 in test [1] came out at 4000 nM; in test [3] it was 150 nM.

For `CC(C)Oc1ccc(S(N)(=O)=O)cc1Nc1nc(-c2ccc(CN3CC[C@@H](F)C3)cc2)cs1` [Example 53, (R)-3-((4-(4-((3-fluoropyrrolidin-1-yl)methyl)phenyl)thiazol-2-yl)amino)-4-isopropoxybenzenesulfonamide.TFA], the values for the IC50 in test [1] and in test [3] were 930 nM and 59 nM, respectively. For the same compound, the Kd was determined as 95 nM in test [2] and 58 nM in test [4].

On to `CCOc1ccncc1Nc1nc(-c2ccc(C3=CCN(C(C)C)CC3)cc2)cs1` [Example 23, N-(4-Ethoxypyridin-3-yl)-4-(4-(1-isopropyl-1,2,3,6-tetrahydropyridin-4-yl)phenyl)thiazol-2-amine.TFA], for which the values for the IC50 in test [1] and in test [3] were 850 nM and 60 nM, respectively. Besides, the Kd in test [2] was found to be 35 nM; in test [4], 510 nM.

Turning to `CC(C)Oc1ccc(C(N)=O)cc1Nc1nc(-c2ccc(OCCCN3CCOCC3)cc2)cs1` [Example 46, 4-isopropoxy-3-((4-(4-(3-morpholinopropoxy)phenyl)thiazol-2-yl)amino)benzamide.TFA], the figures for the IC50 in test [1] and in test [3] were 340 nM and 62 nM, respectively. The Kd in test [2] was 99 nM; in test [4], 20 nM.

As for `COc1ccc(F)cc1Nc1nc(-c2ccc(OCCN3CCN(C)CC3)cc2)cs1` [Example 69, N-(5-fluoro-2-methoxyphenyl)-4-(4-(2-(4-methylpiperazin-1-yl)ethoxy)phenyl)thiazol-2-amine.TFA], the IC50 in test [1] was 4300 nM; in test [3], 90 nM. Further, the Kd in test [2] amounted to 360 nM; in test [4], 1500 nM.

Consider `CC(C)Oc1ccc(C(N)=O)cc1Nc1nc(-c2ccc(N3CCNCC3)cc2)cs1` [Example 7, 4-Isopropoxy-3-((4-(4-(piperazin-1-yl)phenyl)thiazol-2-yl)amino)benzamide.TFA], for which the 50% inhibitory concentration (IC50) in test [1] stood at 77 nM; in test [3] it was 28 nM. In addition, the Kd in test [2] stood at 21 nM; in test [4], 13 nM.

`CC(C)Oc1ccc(S(N)(=O)=O)cc1Nc1nc(-c2ccc(C3=CCNCC3)cc2)cs1` [Example 12, 4-Isopropoxy-3-((4-(4-(1,2,3,6-tetrahydropyridin-4-yl)phenyl)thiazol-2-yl)amino)benzenesulfonamide.TFA]: the IC50 worked out at 340 nM in test [1] and 66 nM in test [3]. The Kd came out at 12 nM in test [2] and 18 nM in test [4].
